From patent publication US20200316064A1, “CYCLIN-DEPENDENT KINASE 2 BIOMARKERS AND USES THEREOF” (Incyte Corporation, priority 2019, published 2020)
pIC50: −log10 of the molar value.

Columns and labels:
[1] = test system: Rb phosphorylated on serine 780 in CCNE1 amplified COV318 cells; assay: CDK2 pRb (S780) HTRF cellular assay; format: cell-based, human; details: for pIC50: Homo sapiens, FIG. 10B, read-out: IC50 in p-RB S780 HTRF cellular assay
Description: CDK2 pRb ([…]) HTRF cellular assay enables the quantitative detection of Rb phosphorylated on […] in CCNE1 amplified COV318 cells. The assay comprised two antibodies: Europium cryptate labeled anti-Phospho-Rb […] antibody (donor) and d2 labeled anti-Rb antibody (acceptor). In brief, COV318 cells were seeded into the wells of 96-well plate at a density of 25,000 per well with 9-point, 3-fold serial diluted compounds and cultured overnight at 37 degree with 5% CO2. The final concentrations of compounds start from 3 μM. The next day cells were lysed in 70 μL 1× Phospho-total protein lysis buffer #2 (Cisbio), supplemented with 0.7 μL blocking buffer (Cisbio) and 1.4 μL protease inhibitor cocktail set III, EDTA-free (Calbiochem, 539134). 16 μL of cell lysates were mixed with 4 μL of the fluorophore-conjugated antibodies to a final concentration of 0.188 nM cryptate-labeled anti-Phospho-Rb […] antibody and 0.14 nM d2 labeled anti-Rb antibody. After 2 h of incubation at room temperature, HTRF signals were measured on the PHERAstar microplate reader (BMG Labtech), using 340 nm as excitation wavelength, a 620 nm filter for the Europium donor fluorescence, and a 665-nm filter for the acceptor fluorescence detection. HTRF signals were calculated as the HTRF ratio (ratio of fluorescence measured at 665 nm and 620 nm)×10000.

[2] = test system: CCNE1-amplified cell lines (COV318, OVCAR3, Fu-OV1, KLE, MKN1, AGS, NCI-N87); assay: Cell cycle analysis by FACS in CCNE1-amplified cell lines; format: cell-based, human; details: 100 nM, 16 hours, vs DMSO
Description: The effect of CDK2-knockdown in CCNE1-amplified versus CCNE1-non-amplified cell lines was evaluated. CCNE1-amplified cell lines (Fu-OV1 and KLE) or CCNE1-non-amplified cell lines (COV504 and Igrov1) were treated with a control (“ctrl”) or CDK2-specific small interfering RNAs (“siRNAs”) (“CDK2 siRNA-1” and “CDK2 siRNA-2”) (FIGS. 2A and 2B and 3A and 3B). Seventy-two hours after transfection with the siRNAs, the cells were harvested and subjected to cell cycle analysis by fluorescence activated cell sorting (“FACS”) (FIGS. 2A and 3A). Knockdown of CDK2 was confirmed by western blot (FIGS. 2B and 3B).
The effect of CDK4/6-inhibition in CCNE1-amplified versus CCNE1-non-amplified cell lines was evaluated.
A similar experiment was performed in a larger set of CCNE1-amplified cell lines (COV318 and OVCAR3) and CCNE1-non-amplified cell lines (COV504, OV56, and Igrov1) (FIG. 6).
Next, the impact of CDK2-knockdown in these cells was evaluated. Mkn1, Ags, and NCI-N87 cells were treated with control or CDK2-specific siRNA. Three days-post-siRNA transfection, cell cycle phase distribution of the cells was evaluated by FACS. […]
Bulk DNA was stained with DAPI. Compound-treated and DMSO treated control cells were acquired with CytoFlex (Beckman Coulter) and were analyzed using the Flow Jo software. […]

pIC50 [1]	Compound	Rb phosphorylation on serine 780 [1]	percentage of S phase cells ([2]; COV318, control siRNA-treated)	percentage of S phase cells ([2]; COV318, p16 knocked down by siRNA)
7.43	C[C@@]1(O)CCC[C@H]1n1c(=O)ccc2cnc(NC3CCN(S(C)(=O)=O)CC3)nc21 [Compound A, 8-((1R,2R)-2-hydroxy-2-methylcyclopentyl)-2-((1-(methylsulfonyl)piperidin-4-yl)amino)pyrido[2,3-d]pyrimidin-7(8H)-one]	inhibited Rb phosphorylation on serine 780	significantly decreased	not significantly decreased
< 5.52	CC(=O)c1c(C)c2cnc(Nc3ccc(N4CCNCC4)cn3)nc2n(C2CCCC2)c1=O [palbociclib]			
